Test results published in paper PMC10644722, “Discovery of inhibitors of protein tyrosine phosphatase 1B contained in a natural products library from Mexican medicinal plants and fungi using a combination of enzymatic and in silico methods**” (Frontiers in Pharmacology, 2023).
Values joined by “and” are separate entries in the source; they are usually repeats but may differ in a detail not shown here. Identical values can stand only once. Like-named read-outs stand apart in the source and are kept apart here.

Target: T1, hPTP1B1-400 (Homo sapiens, UniProt P18031)
T1 sequence (P18031 1-400): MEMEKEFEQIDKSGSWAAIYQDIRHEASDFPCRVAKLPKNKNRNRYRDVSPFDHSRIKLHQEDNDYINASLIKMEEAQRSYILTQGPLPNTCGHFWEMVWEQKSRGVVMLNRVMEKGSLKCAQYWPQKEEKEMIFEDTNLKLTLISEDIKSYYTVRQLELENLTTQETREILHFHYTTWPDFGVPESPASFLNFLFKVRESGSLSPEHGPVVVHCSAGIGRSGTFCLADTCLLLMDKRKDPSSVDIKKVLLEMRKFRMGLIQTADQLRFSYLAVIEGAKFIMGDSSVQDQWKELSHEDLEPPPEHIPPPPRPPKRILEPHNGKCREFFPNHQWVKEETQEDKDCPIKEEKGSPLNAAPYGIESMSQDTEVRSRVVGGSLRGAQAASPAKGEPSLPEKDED
Assay: PTP1B inhibition assay (spectrophotometric, 4-nitrophenyl phosphate)
Format: biochemical
Conditions: for ΔA, activity difference between UA and the compound: absolute pIC50 difference against ursolic acid
Description: The inhibitory activity was determined as a percentage compared to the blank (Buffer) according to the following equation: %InhibitionPTP1B=1−A405s/A405b×100%, (1) where A405(s) is the ΔA of the sample (At20 − At0), A405(b) is the ΔA of the blank obtained in the same manner as that of the sample. Using the data obtained, the enzyme inhibition curve was plotted, for which the average percentage of inhibition was plotted as a function of the inhibitor concentration.

[1] = Hill1 model fit, Origin 8.0, axis C (mM), read-out: k of the IC50 curve
[2] = enzyme 66 nM, 4-NP 0.125 mM, Tris-HCl pH 6.8, 20 min, room temperature, read-out: IC50
[3] = negative log of the IC50 in Molar
[4] = DoseResp model fit, Origin 8.0, axis C (mM), read-out: LOGx0 of the IC50 curve
[5] = IC50 (μM), enzyme 66 nM, 4-NP 0.125 mM, Tris-HCl pH 6.8, 20 min, room temperature
[6] = LOGx0 of the IC50 curve, DoseResp model fit, Origin 8.0, axis C (mM)
[7] = pIC50, negative log of the IC50 in Molar
[8] = negative log of the IC50 in Molar, read-out: pIC50 (converted)

IC50 [8] [mM]	Compound	IC50 [1] [mM]	ΔA, activity difference between UA and the compound	IC50 [2] [mM]	pIC50 [3]	IC50 [4] [mM]	%I (0.02 mM compound) [%]	%I (1 mM compound) [%]	IC50 [5] [mM]	IC50 [6] [mM]	IC50 [7] [mM]
	4-Hydroxy-3,3',5-trimetoxybibencyl [Compound 77]	0.221 ± 0.147	1.0	0.221 ± 0.0001	3.66						
	5,7-Diacetylchrysin [Compound 54]	0.362 ± 0.0378	1.2	0.3618 ± 4e-05	3.44						
	7-Methylluteolin [Compound 50]		1.3	0.4349 ± 8e-06	3.36	0.435 ± 0.00856					
	COc1cc(OC2OC(CO)C(O)C(O)C2O)c2c(-c3ccc(O)c(O)c3)cc(=O)oc2c1 [Compound 2, 5-O-(β-D-Glucopyranosyl)-7-methoxy-3'-4'-dihydroxy-4-phenylcoumarin]		0.3				42.48 ± 1.16	95.13 ± 0.54	0.0404 ± 2e-05	0.0404 ± 0.0232	0.0407
0.0575	COc1cc(-c2cc(=O)c3c(O)c(O)c(OC)cc3o2)ccc1O [Compound 5, 4',5,6-Trihydroxy-3',7-dimethoxyflavone]		0.42 and 0.4	0.0573 ± 2e-05		0.0573 ± 0.0213					
0.0832	C=C(C)[C@H]1COc2c(C)cc3oc4c(C[C@H](O)C(C)(C)O)ccc(O)c4c(=O)c3c2[C@@H]1O [Compound 7, Tajixanthone hydrate]		0.6	0.0832 ± 1e-06		0.0832 ± 0.00124					
0.0891	O=C(OCC1OC(Oc2c(-c3ccc(O)c(O)c3)oc3cc(O)cc(O)c3c2=O)C(O)C(O)C1O)c1ccccc1 [Compound 8, Quercetin-3-O-(6''-benzoyl)-β-D-galactoside]		0.6	0.0888 ± 5e-05		0.0888 ± 0.0504					
0.0891	COc1cc(C)c2c(=O)c3c(O)cc(OC)cc3oc2c1 [Compound 9, Lichexanthone]		0.6	0.0888 ± 5e-06		0.0888 ± 0.00531					
	CC(C)(O)CCC(=O)[C@](C)(O)[C@H]1[C@H](O)C[C@@]2(C)[C@@H]3CC=C4[C@@H](C[C@H](O)[C@@H](O[C@@H]5O[C@H](CO)[C@@H](O)[C@H](O)[C@H]5O)C4(C)C)[C@]3(C)C(=O)C[C@]12C [Compound 14, 3-O-β-D-Glucopyranosyl-23,24-dihydrocucurbitacin F]		1.2	0.3583 ± 1.2e-05	3.45	0.358 ± 0.0127					
	CC(=O)OC(C)(C)/C=C/C(=O)[C@](C)(O)[C@H]1[C@H](O)C[C@@]2(C)[C@@H]3CC=C4[C@@H](C[C@H](O[C@@H]5O[C@H](CO)[C@@H](O)[C@H](O)[C@H]5O)C(=O)C4(C)C)[C@]3(C)C(=O)C[C@]12C [Compound 15, Arvenin I]	0.564 ± 0.041	1.4	0.5643 ± 4.1e-05	3.25						
	CC(=O)OC[C@H]1O[C@@H](Oc2cc(O)cc3oc(=O)cc(-c4ccc(O)cc4)c23)[C@H](O)[C@@H](O)[C@H]1O [Compound 18, 6''-O-Acetyl-5-O-β-D-galactopyranosyl-7,4'-dihydroxy-4-phenylcoumarin]	0.349 ± 0.0341	1.2	0.3486 ± 3e-05	3.46						
	Oc1cccc(CCc2ccc3c(c2)OCO3)c1 [Compound 25]		1.5	0.6621 ± 0.00013	3.18	0.662 ± 0.134					
	C=C1C(=O)O[C@@H]2C[C@@]3(C)CCC=C(C)[C@@H]3C[C@H]12 [Compound 32, Isoalloalantolactone]		1.3	0.4432 ± 5e-05	3.35	0.443 ± 0.0513					
0.245	COc1cc(O)cc(CCc2cccc(O)c2)c1 [Compound 34, Batatasin III]		1.1	0.2474 ± 7e-05		0.247 ± 0.0675					
0.427	CN1C(=O)c2ccccc2-n2c(nc3ccccc3c2=O)[C@@H]1Cc1ccccc1 [Compound 40, Benzomalvin A]		1.3	0.4242 ± 5e-06		0.424 ± 0.00536					
0.646	CCCCCCCCCCCCCCCCCCCCOC(=O)C=Cc1ccc(O)c(OC)c1 [Compound 43, Eicosyl 4-hydroxy-3-methoxy-cinnamate]		1.5	0.6483 ± 0.00013		0.648 ± 0.131					
	COc1ccc([C@H]2OC[C@H]3[C@@H]2CO[C@@H]3c2ccc3c(c2OC)OCO3)cc1OC [Compound 47, 2'-Methoxykobusin]	0.125 ± 0.00914	0.8	0.1253 ± 9e-06	3.90						
	C/C(=C/CC[C@H](C)[C@@H]1CC[C@]2(C)C3=CC[C@H]4C(C)(C)[C@H](O)CC[C@]4(C)[C@H]3CC[C@@]12C)C(=O)O [Compound 49, 3α-Hydroxymasticadienonic acid]		0.8	0.1507 ± 5e-06	3.82	0.151 ± 0.0053					
0.851	O=c1c(O[C@@H]2O[C@H](CO)[C@H](O)[C@H](O)[C@H]2O)c(-c2ccc(O)cc2)oc2cc(O)cc(O)c12 [Compound 51, Trifolin]		1.6	0.859 ± 0.0003		0.859 ± 0.0259					
0.309	O=C1C[C@@H](c2ccccc2)Oc2cc(O)cc(O)c21 [Compound 53, Pinocembrin]		1.1	0.3062 ± 2e-05		0.306 ± 0.0184					
0.891	C[C@H]1C(=O)CC[C@@H]2[C@]1(C)CC[C@H]1[C@@]2(C)CC[C@@]2(C)[C@@H]3CC(C)(C)CC[C@]3(C)CC[C@]12C [Compound 56, Friedelin]		1.6 and 1.61	0.8878 ± 4e-05		0.888 ± 0.0408					
	COc1cc(=O)oc2c(O[C@@H]3O[C@H](CO)[C@@H](O)[C@H](O)[C@H]3O)ccc(C)c12 [Compound 63, 8-β-D-glucopyranosyloxy-4-methoxy-5-methyl-coumarin]		0.9	0.1657 ± 2e-05	3.78	0.166 ± 0.0177					
	CC(=O)OC[C@H]1O[C@@H](Oc2cc(O)cc3oc(=O)cc(-c4ccc(O)c(O)c4)c23)[C@H](O)[C@@H](O)[C@H]1O [Compound 67, 6''-O-acetyl-5-O-β-D-galactopyranosyl-7,3',4'-trihydroxy-4-phenylcoumarin]		1.1	0.2543 ± 0.0002	3.59	0.254 ± 0.203					
	COc1cc(O[C@@H]2O[C@H](CO[C@@H]3OCC(O)(CO)[C@H]3O)[C@@H](O)[C@H](O)[C@H]2O)c2c(-c3ccc(O)c(O)c3)cc(=O)oc2c1 (stereo partly drawn) [Compound 73, 5-O-β-D-Apiofuranosyl-(1→6)-β-D-glucopyranosyl-7-metoxi-3'-4'-dihydroxy-4-phenylcoumarin]		1.2	0.3586 ± 7e-05	3.45	0.359 ± 0.0682					
	O=C(O[C@@H]1Cc2c(O)cc(O)cc2O[C@@H]1c1ccc(O)c(O)c1)c1cc(O)c(O)c(O)c1 [Compound 82, (-)-Epicatechin 3-O-gallate]	0.142 ± 0.00656	0.8	0.1424 ± 7e-06	3.85						
	CC[C@H](/C=C/[C@@H](C)[C@H]1CC[C@H]2C3=CC[C@H]4C[C@@H](OC(C)=O)CC[C@]4(C)[C@H]3CC[C@]12C)C(C)C [Compound 85, α-Spinasterol acetate]		1.1						0.2772 ± 1e-05	0.277 ± 0.0114	0.275

Compound	IC50 [8] [mM]	IC50 [1] [mM]	ΔA, activity difference between UA and the compound	IC50 [2] [mM]	pIC50 [3]	IC50 [4] [mM]	%I (0.02 mM compound) [%]	%I (1 mM compound) [%]	IC50 [5] [mM]	IC50 [6] [mM]	IC50 [7] [mM]
CC(=CCCC(C)C1CCC2(C)C3=CCC4C(C)(C)C(=O)CCC4(C)C3CCC12C)C(=O)O (centres unmarked) [Compound 4, Masticadienonic acid]	0.049		0.4	0.0491 ± 4e-06		0.0491 ± 0.00475					
CC(C)(O)C(O)C1CC(C2CCC3(C)C4=CCC5C(C)(C)C(=O)CCC5(C)C4CCC23C)C(O)O1 (centres unmarked) [Compound 10, Melianodiol]	0.0912		0.6	0.0921 ± 4e-05							
COc1c(O)cc2cc(OC)c3cc(O)ccc3c2c1OC [Compound 41, Gymnopusin]	0.427		1.3	0.4314 ± 1e-05		0.431 ± 0.0111					
C=C(C)C(C)(C)CCC(C)C1CCC2(C)C3CCC4C(C)(CCC(O)C4(C)C)C3=CCC12C (stereo not drawn) [Compound 64, 5α-lanosta-24,24-dimethyl-9(11),25-dien-3β-ol]	0.398		1.3	0.3985 ± 3e-05		0.399 ± 0.025					
CCC(C=CC(C)C1CCC2C3=CCC4CC(O)CCC4(C)C3CCC21C)C(C)C (stereo not drawn) [Compound 84, α-Spinasterol]	1		1.7 and 1.66	0.9891 ± 0.00014		0.989 ± 0.137					
